# Literature values, collected in US8609668B2, “Substituted triazolo[1,5-A]pyrimidines as antiviral agents” (Philadelphia Health & Education Corporation, priority 2006, dated 2013).
# Tested on: HBeAg secretion
# Settings: in vivo and in vitro
compound,measurement,value
O=c1oc2c(O)c(O)cc3c(=O)oc4c(O)c(O)cc1c4c23 [Ellagic acid],secretion of HBeAg,specifically inhibit secretion of HBeAg
